Assay results taken from patent US20250304990A1, “HERBICIDE RESISTANCE” (SYNGENTA CROP PROTECTION AG, priority 2021, published 2025).
“And” between values parts separate entries of the source, which are not always exact repeats. Identical values can stand only once.

Columns and labels:
[1] = system: D4426 (V263A mutant Oryza sativa HST) containing tobacco plant; assay: Herbicide damage score after spraying, Example 4; type: in vivo; conditions: T1 B5u 500 gai/ha; D4426 V263A; averaged across transgenic population
Experimental: (§1) In order to determine if the newly discovered mutations detailed in Example 1 confer resistance to HST inhibiting compounds when expressed in plants, GM tobacco lines were produced and tested with HST inhibiting compounds. Transgenic tobacco plants expressing the Oryza sativa HST gene with and without mutations were tested.
(§2) Populations of transgenic tobacco comprising 20-30 transgenic events per plant transformation constructs were generated as described in Example 2. These lines were clonally propagated and 1 clone per event was sprayed with 500, 100 or 50 g ai/ha of compound 1+0.2% (w/v) Genapol X080 with a spray volume of 200 L/Ha. (“g ai/ha” refers to grams of active compound per hectare).
(§3) Herbicidal damage was visually assessed across the population and a herbicide damage score given at 7 and 14 days. A score of 0 indicates no visible damage or stunting whereas a score of 100 indicates a complete death of the plant. 20 transgenic events (i.e. individual transgenic plants) from each GM tobacco line were transplanted to soil 1 week prior to spraying with HST inhibiting compounds. WT tobacco was included as a control. The mutated genes are identified in Table 16 below.
(§4) The values in Tables 17 to 23 below refer to percentage of damage to the tested plants and show the damage scores for 20 populations of plants expressing either Oryza sativa WT HST gene (SEQ ID NO. 18), the Oryza sativa HST mutated gene according to SEQ ID NO. 47, the Oryza sativa HST mutated gene according to SEQ ID NO. 48, the Oryza sativa HST mutated gene according to SEQ ID NO. 49, the Oryza sativa HST mutated gene according to SEQ ID NO. 50, or the Oryza sativa HST mutated gene according to SEQ ID NO. 51. A control population of wild-type Samsun tobacco was also assessed for herbicide damage. […] However the mutated versions of the HST gene carrying the F262I, V263A, […], or F266L mutations (SEQ ID NOs: 47, 48, 50 or 51) clearly display increased tolerance.

[2] = system: D4425 (F262I mutant Oryza sativa HST) containing tobacco plant; assay: Herbicide damage score after spraying, Example 4; type: in vivo; conditions: T1 B5u 500 gai/ha, averaged across transgenic population
Experimental: as §1, §2, §3, §4

[3] = system: D4429 (F266L mutant Oryza sativa HST) containing tobacco plant; assay: Herbicide damage score after spraying, Example 4; type: in vivo; conditions: T1 B5u 500 gai/ha, averaged across transgenic population
Experimental: as §1, §2, §3, §4

[4] = system: D4428 (F266I mutant Oryza sativa HST) containing tobacco plant; assay: Herbicide damage score after spraying, Example 4; type: in vivo; conditions: T1 B5u 500 gai/ha, averaged across transgenic population
Experimental: as §1, §2, §3, §4

[5] = system: D4424 (WT Oryza sativa HST) containing tobacco plant; assay: Herbicide damage score after spraying, Example 4; type: in vivo
Experimental: as §1, §2, §3, §4

[6] = system: D4427 (T264N mutant Oryza sativa HST) containing tobacco plant; assay: Herbicide damage score after spraying, Example 4; type: in vivo; conditions: T1 B5u 500 gai/ha
Experimental: as §1, §2, §3, §4

WT tobacco = assay: Herbicide damage score after spraying, Example 4; type: in vivo; conditions: T1 B5u 500 gai/ha; WT tobacco (Example 4); per plant
Experimental: as §1, §2, §3, §4

Cf-496-47 = assay: Dose response test, growth in 96-well plates; type: cell-based, Chlorella fusca; conditions: strain Cf-496-47; no growth, visual inspection
[7] = system: D4294 (T278N mutant Arabidopsis thaliana HST) containing tobacco plant; assay: Herbicide damage score after spraying, Example 3; type: in vivo; conditions: T1 B5u 500 gai/ha; D4294 T278N; averaged across transgenic population
Experimental: as §1, with “lines are to be” for “lines were”, “the Arabidopsis” for “the Oryza sativa”
(§5) Populations of transgenic tobacco comprising 20-30 transgenic events per plant transformation constructs were generated as described in Example 2. These lines were clonally propagated and 1 clone per event was sprayed with 500, 100 or 50 g ai/ha of compound 1+0.2% Genapol X080 with a spray volume of 200 L/Ha (“g ai/ha” refers to grams of active compound per hectare).
as §3, with “control.” for “control. The mutated genes are identified in Table 16 below.”
(§6) The values in Tables 8 to 14 below refer to percentage of damage to the tested plants and show the damage scores for 20 populations of plants expressing either Arabidopsis WT HST gene (SEQ ID NO. 14), the Arabidopsis HST mutated gene according to SEQ ID NO. 27, the Arabidopsis HST mutated gene according to SEQ ID NO. 28, the Arabidopsis HST mutated gene according to SEQ ID NO. 29, the Arabidopsis HST mutated gene according to SEQ ID NO. 30, or the Arabidopsis HST mutated gene according to SEQ ID NO. 31. A control population of wild-type Samsun tobacco was also assessed for herbicide damage. […] However the mutated versions of the HST gene carrying the F276I, V277A, F280I or F280L mutations (SEQ ID NOs: 27, 28, 30 or 31) clearly display increased tolerance.

[8] = system: D4291 (WT Arabidopsis thaliana HST) containing tobacco plant; assay: Herbicide damage score after spraying, Example 3; type: in vivo
Experimental: as §1, with “lines are to be” for “lines were”, “the Arabidopsis” for “the Oryza sativa”
as §5
as §3, with “control.” for “control. The mutated genes are identified in Table 16 below.”
as §6

Cf-496-2 = assay: Dose response test, growth in 96-well plates; type: cell-based, Chlorella fusca; conditions: strain Cf-496-2; no growth, visual inspection
Cf-496-6 = assay: Dose response test, growth in 96-well plates; type: cell-based, Chlorella fusca; conditions: strain Cf-496-6; no growth, visual inspection

`Cc1nn(C)c(=O)c(-c2c(F)ccc(Cl)c2CCc2ccc(C(F)(F)F)cc2)c1OC(=O)C(C)C` [B5u, [5-[3-chloro-6-fluoro-2-[2-[4-(trifluoromethyl)phenyl]ethyl]phenyl]-1,3-dimethyl-6-oxo-pyridazin-4-yl]2-methylpropanoate] gave an Average percentage damage [1] of 24%, an Average percentage damage [2] of 38% and an Average percentage damage [3] of 40%. The Average percentage damage [4] was 56%, the Average percentage damage ([5]; T1 B5u 500 gai/ha, D4424, mutation n.a., averaged across transgenic population) was 31% and the tolerance to herbicide ([5]; overexpression of Oryza sativa HST gene (SEQ ID NO.18) in tobacco) was “does not increase tolerance”. The percentage of damage ([6]; D4427 OsHST V003 T264N, per event) was 50%, the Average percentage damage ([6]; D4427 T264N, averaged across transgenic population) was 67% and the percentage of damage (WT tobacco) was 98% and 97% and 96% and 95%. For the same compound, the “LD (lethal dose)” value (Cf-496-47) was >100 ppm, the Average percentage damage [7] was 76% and the Average percentage damage ([8]; T1 B5u 500 gai/ha, D4291, mutation n.a., averaged across transgenic population) was 55%. The tolerance to herbicide ([8]; overexpression of Arabidopsis HST gene (SEQ ID NO.14) in tobacco) was “does not increase tolerance”, the “LD (lethal dose)” value (Cf-496-2) was 6.25 ppm and the “LD (lethal dose)” value (Cf-496-6) was >100 ppm.
